Source: US9309187B2, “EP2 receptor agonists” (TAKEDA GMBH, priority 2012, dated 2016)
Read-outs that look alike come from different tables or passages of the source.

Legend:
[1] = target: T1, human EP2 receptor (Homo sapiens, UniProt P43116); experiment: EP2 binding assay (PGE2 displacement)
T1 construct: purchased Millipore
Method: Method for Measuring Inhibition of PGE2 Binding to the Human Prostanoid Receptor EP2:
Human EP2 receptor equilibrium competition binding assays were performed according to Abramovitz et al. (M. Abramovitz et al. 2000, Biochimica et Biophysica Acta 1483: 285-293) in a final incubation volume of 100 microL in 50 milliM Bis-Tris, pH6.0 in 96-well plates. Radiolabelled Prostaglandin E2 (PGE2) (1 nanoM [^3H]-PGE2 purchased from Perkin Elmer) was added to the assay as competitive ligand. Test compounds stored as Dimethylsulfoxide (DMSO) stock solutions were added to the assay in serial dilutions in assay buffer while keeping the final DMSO concentration equal in each sample. The reaction was initiated by addition of membrane proteins harbouring human EP2 receptor (ChemiSCREEN™ membrane preparation recombinant human EP2 prostanoid receptor that was purchased by Millipore). Total binding was determined in the absence of test compound or PGE2 and non-specific binding was determined in the presence of 1 microM PGE2. Incubations were conducted for 60 minutes at room temperature until equilibrium was reached and terminated by filtration through GF/B filter (Perkin Elmer) prewetted with 0.3% PEI solution. Unbound radiolabelled PGE2 was removed by 8 wash cycles with the same buffer under ice-cold conditions and the filters containing the residual radioactivity were dried for 60 minutes at 60° C. In order to measure the filter bound radioactivity, 40 microL microscint (scintillation liquid) was added to each filter and the chemiluminescence was determined by TopCount-NTX™. The specific binding was calculated by subtracting non-specific binding from each sample. Percent inhibition by test compounds was calculated based on specific binding without test compound. Each sample was measured in triplicates per experiment and for the calculation of the pIC50 at least 2 independent experiments were performed. Determination of half maximal inhibiting concentration (IC50) was performed with GraphPad Prism Software.
The numbers of the compounds correspond to the examples numbers.
EP2 Binding Assay (PGE2 Displacement): pIC50 Values

[2] = target: T2, human prostanoid receptor EP2 (Homo sapiens, UniProt P43116); experiment: EP2 cAMP release assay in CHOp6CreLuc-huEP2 cells (CRE-luciferase readout); assay type: cell-based
T2 construct: expressed in transfected cells; host or cells: CHO-K1 (CHOp6CreLuc-huEP2)
T2 sequence (P43116 whole entry): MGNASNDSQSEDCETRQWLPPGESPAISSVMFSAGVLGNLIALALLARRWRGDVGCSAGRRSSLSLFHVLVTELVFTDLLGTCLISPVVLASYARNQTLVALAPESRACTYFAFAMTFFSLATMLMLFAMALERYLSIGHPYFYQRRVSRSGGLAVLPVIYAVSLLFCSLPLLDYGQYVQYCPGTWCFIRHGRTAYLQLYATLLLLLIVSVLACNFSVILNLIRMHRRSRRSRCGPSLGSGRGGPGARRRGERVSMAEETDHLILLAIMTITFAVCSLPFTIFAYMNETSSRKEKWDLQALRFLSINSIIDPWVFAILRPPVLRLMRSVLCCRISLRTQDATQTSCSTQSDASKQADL
Method: Method for Measuring cAMP Release in Human EP2 Stably Transfectant Cells:
The potency and efficacy of EP2 agonists have been determined via measuring cAMP release in stably transfectant CHO-K1 cell expressing the human prostanoid receptor EP2 and luciferase enzyme regulated via a 6 times CRE (cAMP response element) containing transcriptional promoter. CHOp6CreLuc-huEP2 cells were seeded into 384-well plate (1000 cells per well) in DMEM/F12 (Dulbecco's Modified Eagle Medium/Nutrient Mixture F12) cell culture medium containing 2% FCS (Fetal Calf Serum) and 500 μg/ml G418 24 hours prior to the experiment. Test compound was added as serial dilutions while keeping the final DMSO concentration constant in each well. […] Cells were incubated together with test compound or butaprost for 4 hours at 37° C. The cAMP release was determined indirectly via luciferase activity that directly correlated to the amount of luciferase enzyme expressed in response to cAMP regulated promoter activity. The luciferase activity was determined by addition of luciferin containing buffer and subsequent quantification of resulting luminescence. Each sample was measured in quadruplicates per experiment and half-maximal effective concentration (EC50) and relative maximal effect compared to butaprost was determined from 3 independent experiments with GraphPad Prism Software. A compound that achieved over 80% of the maximal effect of butaprost was considered as full agonist.
For the following compounds the potency was determined in the cAMP release assay applying human EP2 transfectant CHOp6CreLuc-huEP2 cells. […] The numbers of the compounds correspond to the examples numbers.
EP2 cAMP Release Assay: pEC50

[3] = test system: TNFalpha release in human peripheral blood mononuclear cells (PBMC) stimulated with LPS; experiment: Inhibition of LPS induced TNFalpha release in human PBMCs; assay type: cell-based; conditions: 1 ng/mL LPS, 24 hours, reported as range bins, read-out: Inhibition of LPS induced TNFalpha release in human PBMCs pIC30 (-log IC30)
Method: Method for Measuring the Inhibition of TNFalpha Release in Human Peripheral Blood MononuClear Cells (PBMC) Stimulated with LPS:
Assay was performed with some modifications of the method described by Hatzelmann and Schudt (Hatzelmann and Schudt 2001, J. Pharmacol. Exp. Therapeutics 297: 267-279) and the protocol “drawing of venous blood from healthy volunteers for in vitro studies” was approved by the ethics committee of the Landesärztekammer Baden Württemberg in Stuttgart. Peripheral blood mononuclear cells (PBMCs) were isolated from venous blood with the anticoagulant citrate from healthy donors according to standard protocols using Ficoll. The cell layer of PBMCs were washed twice with phosphate buffer solution and equilibrated at room temperature for 60 minutes. 500,000 PBMCs in 180 microL RPMI1640 cell medium supplemented with 10% FCS, NEAA (Non-essential-amino-acids), L-Glutamine and Sodium Pyruvate per sample were pre-incubated with 10 microL of a serial dilution of test compound or piclamilast as positive control for 60 min. at 37° C. After pre-incubation blood samples were stimulated by the addition of 10 microL LPS (Sigma, Aldrich) per sample resulting in a final concentration of 1 ng/mL LPS and a final volume of 200 microL. Cells were incubated for 24 hours at 37° C. TNFalpha levels were determined from cell supernatant that was obtained by a centrifugation step and transferring the supernatant to a new 96-well plate. Content of TNFalpha was determined via alphaLISA Technology according to manufacture protocol (Perkin Elmer).
PBMC samples that were not stimulated with LPS were used as control and set for 100% inhibition. PBMC samples that were stimulated with LPS and solvent instead of test compound were set as 0% inhibition. Percent inhibition was calculated based on these controls for each sample and since most compounds achieved saturating maximal inhibition of 60% a pIC30 value was calculated with GraphPad Prism Software.
For the following compounds the inhibitory values of TNFalpha release [determined as −log IC30=pIC30] in human PBMCs between 5.0 and 5.9, between 6.0 and 6.9, between 7.0 and 7.9 and between 8.0 and 9.0 have been determined. The numbers of the compounds correspond to the examples numbers.
Inhibition of LPS Induced TNFalpha Release Assay in Human PBMCs: pIC30

[4] = recombinant human EP2 membranes, 1 nanoM [3H]-PGE2, reported as range bins, read-out: EP2 binding (PGE2 displacement) pIC50 (-log IC50) (converted)
[5] = CHOp6CreLuc-huEP2 cells, 4 hours at 37° C., reported as range bins, read-out: EP2 cAMP release assay pEC50 (-log EC50) (converted)

T1 sequence (P43116 whole entry): as above

Compound | IC50 [1, 4] | EC50 [2, 5] | IC30 [3] | IC50 [1] | EC50 [2] | maximal effect of positive control relative to PGE2 ([2]; CHOp6CreLuc-huEP2 cells)
O=C(O)COc1ccc(F)c(NC(=O)c2cc(-c3ccccc3)cc3ccccc23)c1 [Example 5, (4-fluoro-3-{[(3-phenylnaphthalen-1-yl)carbonyl]amino}phenoxy)acetic acid] | 1.26 to 10 nM | 0.00631 to 0.1 nM | – | – | – | –
O=C(O)COc1ccc(Cl)c(NC(=O)c2cc(-c3ccccc3)cc3ccccc23)c1 [Example 6] | 12.6 to 100 nM | 0.00631 to 0.1 nM | – | – | – | –
O=C(O)CCc1cccc(NC(=O)c2cc(-c3ccccc3)cc3ccccc23)c1 [Example 7, 3-(3-{[(3-phenylnaphthalen-1-yl)carbonyl]amino}phenyl) propanoic acid] | 12.6 to 100 nM | 0.126 to 1 nM | 0.126 to 1 µM | – | – | –
O=C(O)CCc1ccc(F)c(NC(=O)c2cc(-c3ccccc3)cc3ccccc23)c1 [Example 8, 3-(4-fluoro-3-{[(3-phenylnaphthalen-1-yl)carbonyl]amino}phenyl) propanoic acid] | 12.6 to 100 nM | 0.126 to 1 nM | 0.126 to 1 µM | – | – | –
O=C(O)/C=C/c1ccc(F)c(NC(=O)c2cc(-c3ccc(F)cc3)cc3ccccc23)c1 [Example 11, (2E)-3-{3-[({3-[4-fluorophenyl]naphthalen-1-yl}carbonyl)amino]-4fluorophenyl}prop-2-enoic acid] | 1.26 to 10 nM | 0.126 to 1 nM | – | – | – | –
CN(C)C(=O)Oc1cccc(-c2cc(C(=O)Nc3cccc(/C=C/C(=O)O)c3)c3ccccc3c2)c1 [Example 23, (2E)-3-(3-{[(3-{3-[(dimethylcarbamoyl)oxy]phenyl}naphthalen-1-yl)carbonyl]amino}phenyl)prop-2-enoic acid] | – | – | 0.126 to 1 µM | 126 to 2000 nM | 1.26 to 12.6 nM | –
CCCC1([C@H](O)C/C=C/[C@H]2[C@H](O)CC(=O)[C@@H]2CCCCCCC(=O)OC)CCC1 [butaprost, reference compound] | – | – | – | – | – | same maximal effect compared to the maximal effect of PGE2

The next lines start with results.

IC50 [1, 4] | EC50 [2, 5] | Compound | IC30 [3] | IC50 [1] | EC50 [2] | maximal effect of positive control relative to PGE2 ([2]; CHOp6CreLuc-huEP2 cells)
1.26 to 10 nM | 0.126 to 1 nM | O=C(O)/C=C/c1ccc(F)c(NC(=O)c2cc(-c3cccc(CO)c3)cc3ccccc23)c1 [Example 14, (2E)-3-{4-fluoro-3-[({3-[3-(hydroxymethyl)phenyl]naphthalen-1-yl}carbonyl)amino]phenyl}prop-2-enoic acid] | 0.126 to 1 µM | – | – | –
12.6 to 100 nM | 1.26 to 12.6 nM | O=C(O)CCc1ccc(F)c(NC(=O)c2cc(-c3ccccc3F)cc3ccccc23)c1 [Example 16, 3-[4-fluoro-3-({[3-(2-fluorophenyl)naphthalen-1yl]carbonyl}amino)phenyl]-propanoicacid] | 0.126 to 1 µM | – | – | –
1.26 to 10 nM | 0.126 to 1 nM | O=C(O)CCc1ccc(F)c(NC(=O)c2cc(-c3cccc(F)c3)cc3ccccc23)c1 [Example 17, 3-[4-fluoro-3-({[3-(3-fluorophenyl)naphthalen-1-yl]carbonyl}amino)phenyl]propanoic acid] | 0.126 to 1 µM | – | – | –
– | 1.26 to 12.6 nM | CC(=O)NCc1cccc(-c2cc(C(=O)Nc3cc(/C=C/C(=O)O)ccc3F)c3ccccc3c2)c1 [Example 18] | 1.26 to 10 µM | – | – | –
126 to 2000 nM | 1.26 to 12.6 nM | O=C(O)/C=C/c1cccc(NC(=O)c2cc(-c3cccc(N4CCNCC4)c3)cc3ccccc23)c1 [Example 20, (2E)-3-{3[({3-[3-(piperazin-1-yl)phenyl]naphthalen-1-yl}carbonyl)amino]phenyl}prop-2-enoic acid] | – | – | – | –
126 to 2000 nM | 1.26 to 12.6 nM | O=C(O)/C=C/c1cccc(NC(=O)c2cc(N3CCOCC3)cc3ccccc23)c1 [Example 21, (2E)-3-[3-({[3-(morpholin-4-yl)naphthalen-1-yl]carbonyl}amino)phenyl]prop-2-enoic acid] | 0.126 to 1 µM | – | – | –
